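48-hour exposure; five concentrations; linearly interpolated endpoints. Definition used: TGI = concentration required for complete inhibition of growth.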

Among the test systems are HT29 colon; KM12 colon; LOX IMVI melanoma; M14 melanoma; NCI-H226 lung; NCI-H460 lung; OVCAR-3 ovarian; OVCAR-4 ovarian; OVCAR-5 ovarian; SF-539 CNS; SK-MEL-28 melanoma.
What all share (test): NCI-60 cell line screen, 48 h

Regarding `Cn1c(Sc2ccc(-c3cccnc3)n2C)ccc1-c1cccnc1`, the TGI turned out to be 55.1 µM in the assay on HT29 colon; 33.6 µM in the assay with KM12 colon; 15.8 µM with LOX IMVI melanoma; 37 µM with M14 melanoma; 51.1 µM in the assay with NCI-H226 lung; 31.1 µM in the assay on NCI-H460 lung. The TGI with OVCAR-3 ovarian was found to be 27.3 µM; with OVCAR-4 ovarian, 36.6 µM; in the assay on OVCAR-5 ovarian, 50.9 µM; with SF-539 CNS, 41.8 µM; in the assay with SK-MEL-28 melanoma, 26.9 µM.

Consider `NNc1ccccc1Cl`, for which the TGI in the assay with HT29 colon, in the assay with KM12 colon, in the assay with LOX IMVI melanoma, in the assay with M14 melanoma, in the assay on NCI-H226 lung and with NCI-H460 lung was above 100 µM in each case. Moreover, the TGI in the assay on OVCAR-3 ovarian, in the assay with OVCAR-4 ovarian, in the assay on OVCAR-5 ovarian, in the assay on SF-539 CNS and in the assay on SK-MEL-28 melanoma was above 100 µM throughout.

Take `COc1cc(S(=O)(=O)Nc2nc(-c3ccc(N)cc3)cs2)ccc1Cl`: the TGI in the assay with HT29 colon, in the assay with KM12 colon, with LOX IMVI melanoma, in the assay on M14 melanoma, with NCI-H226 lung and in the assay with NCI-H460 lung was above 100 µM each time. Besides, the TGI with OVCAR-3 ovarian, in the assay with OVCAR-4 ovarian, with OVCAR-5 ovarian, with SF-539 CNS and in the assay with SK-MEL-28 melanoma was above 100 µM each time.

As to `COc1cc(O)c2c(c1)C(=O)c1cc(C)cc(O)c1C2=O`, the TGI in the assay on HT29 colon, in the assay on KM12 colon, with LOX IMVI melanoma, in the assay on M14 melanoma, with NCI-H226 lung and in the assay on NCI-H460 lung was above 100 µM in each case. Moreover, the TGI with OVCAR-3 ovarian, with OVCAR-4 ovarian, with OVCAR-5 ovarian, in the assay with SF-539 CNS and in the assay with SK-MEL-28 melanoma was above 100 µM in each case.

In the case of `Cc1cc(=O)oc2c1cc(OCC(=O)OCCN1CCCCC1)c1occ(C)c12`, the TGI in the assay on HT29 colon, with KM12 colon, in the assay on LOX IMVI melanoma, in the assay with M14 melanoma, in the assay with NCI-H226 lung and with NCI-H460 lung was above 100 µM each time. In addition, the TGI in the assay with OVCAR-3 ovarian, in the assay on OVCAR-4 ovarian, with OVCAR-5 ovarian, in the assay on SF-539 CNS and with SK-MEL-28 melanoma was above 100 µM each time.

`CO[C@@H]1C=C[C@@]23c4cc5c(cc4C(O)N(CC2O)C3C1)OCO5` (stereo not given in full): the TGI in the assay with HT29 colon was 26.2 µM; with KM12 colon, 17 µM; with LOX IMVI melanoma, 48.5 µM; with M14 melanoma it was 12.6 µM; in the assay on NCI-H226 lung it was above 100 µM; in the assay with NCI-H460 lung it was 12.9 µM. The TGI in the assay on OVCAR-3 ovarian was 58.8 µM; with OVCAR-4 ovarian it was 19.4 µM; in the assay on OVCAR-5 ovarian it was 79.3 µM; in the assay with SF-539 CNS, above 100 µM; with SK-MEL-28 melanoma, above 100 µM.

Turning to `COc1ccc(CC2c3cc(OC)c(OC)c(OC)c3CC[N+]2(C)C)cc1Oc1ccc(CC2c3cc4c(c(OC)c3CCN2C)OCO4)cc1` (stereo not given), the TGI in the assay with HT29 colon, in the assay on KM12 colon, in the assay with LOX IMVI melanoma, in the assay with M14 melanoma, in the assay with NCI-H226 lung and in the assay with NCI-H460 lung was above 100 µM throughout. For the same compound, the TGI in the assay with OVCAR-3 ovarian, in the assay on OVCAR-4 ovarian, with OVCAR-5 ovarian, in the assay on SF-539 CNS and with SK-MEL-28 melanoma was above 100 µM throughout.

With `CC(C)=CCC[C@](C)(O[C@@H]1O[C@H](CO)[C@@H](O)[C@H](O)[C@H]1O)[C@H]1CC[C@]2(C)[C@@H]1[C@H](O)C[C@@H]1[C@@]3(C)CC[C@H](O)C(C)(C)[C@@H]3[C@@H](O[C@@H]3O[C@H](CO)[C@@H](O)[C@H](O)[C@H]3O)C[C@]12C`, the TGI in the assay with HT29 colon, in the assay on KM12 colon, with LOX IMVI melanoma, in the assay on M14 melanoma, in the assay with NCI-H226 lung and in the assay on NCI-H460 lung was above 100 µM each time. Further, the TGI in the assay on OVCAR-3 ovarian, in the assay on OVCAR-4 ovarian, in the assay on OVCAR-5 ovarian, with SF-539 CNS and with SK-MEL-28 melanoma was above 100 µM in each case.

Consider `O=C1C[C@@H](Sc2ccccc2)C2(OCCO2)[C@H]2ON3CCC[C@@H]3[C@@H]12`, for which the TGI in the assay on HT29 colon was determined as 2.86 µM; with KM12 colon it was 18.4 µM; in the assay on LOX IMVI melanoma, 11.8 µM; in the assay with M14 melanoma, 4.58 µM; with NCI-H226 lung, 34.5 µM; in the assay on NCI-H460 lung it was 18.7 µM. For the same compound, the TGI in the assay on OVCAR-3 ovarian was found to be 9.15 µM; in the assay on OVCAR-4 ovarian it was 19.6 µM; in the assay with SF-539 CNS, 19.8 µM; with SK-MEL-28 melanoma it was 23 µM.

For `O=C(O)C1=NNC(C(=O)O)=NN1`, the TGI with HT29 colon, in the assay on KM12 colon, with LOX IMVI melanoma, in the assay with M14 melanoma, in the assay with NCI-H226 lung and with NCI-H460 lung was above 100 µM in each case. Besides, the TGI in the assay on OVCAR-3 ovarian, in the assay on OVCAR-4 ovarian, in the assay on OVCAR-5 ovarian, with SF-539 CNS and with SK-MEL-28 melanoma was above 100 µM each time.

Consider `COc1ccc([C@H]2C=C(c3cc(F)c(Cl)cc3Cl)NC(=S)N2)cc1`, for which the TGI in the assay on HT29 colon was 80.5 µM; in the assay on KM12 colon, above 100 µM; in the assay on LOX IMVI melanoma it was above 100 µM; with M14 melanoma, above 100 µM; in the assay with NCI-H226 lung it was above 100 µM; in the assay with NCI-H460 lung it was 54.3 µM. Also, the TGI in the assay with OVCAR-3 ovarian, in the assay with OVCAR-4 ovarian, in the assay on OVCAR-5 ovarian, in the assay with SF-539 CNS and in the assay on SK-MEL-28 melanoma was above 100 µM throughout.

For `O=c1cc(O)c2ccccc2o1`, the TGI with HT29 colon, in the assay on KM12 colon, with LOX IMVI melanoma, with M14 melanoma, in the assay with NCI-H226 lung and in the assay with NCI-H460 lung was above 100 µM in each case. Besides, the TGI with OVCAR-3 ovarian, in the assay on OVCAR-4 ovarian, with OVCAR-5 ovarian, in the assay with SF-539 CNS and in the assay on SK-MEL-28 melanoma was above 100 µM in each case.

Regarding `CCCCCCCCCCCCCCCCOCC(COP(=O)([O-])OCC[n+]1ccc(N(C)C)cc1)OCC` (stereo not given), the TGI in the assay on HT29 colon stood at 28 µM; with KM12 colon, 3.86 µM; in the assay on LOX IMVI melanoma it was 25.5 µM; in the assay on M14 melanoma it was 26.7 µM; in the assay on NCI-H226 lung, 33.7 µM; in the assay on NCI-H460 lung, 25.4 µM. For the same compound, the TGI in the assay with OVCAR-3 ovarian was 24.8 µM; with OVCAR-4 ovarian, 29.3 µM; with SF-539 CNS, 26.3 µM; in the assay on SK-MEL-28 melanoma, 32.4 µM.

In the case of `Nc1ccc(Nc2c3ccccc3nc3ccccc23)cc1`, the TGI was above 10 µM in the assay on HT29 colon; above 10 µM with KM12 colon; 2.35 µM in the assay with LOX IMVI melanoma; above 10 µM in the assay on M14 melanoma; 7.52 µM in the assay with NCI-H226 lung; 8.07 µM in the assay with NCI-H460 lung. The TGI in the assay on OVCAR-3 ovarian, in the assay on OVCAR-4 ovarian, in the assay on OVCAR-5 ovarian, in the assay with SF-539 CNS and with SK-MEL-28 melanoma was above 10 µM in each case.

Regarding `O=C1c2ccccc2C(=O)c2c1ccc(C(=O)O)c2-c1ccc2ccccc2c1`, the TGI in the assay with HT29 colon is above 100 µM; in the assay with KM12 colon, above 100 µM; with LOX IMVI melanoma, 41.6 µM; with M14 melanoma, 54.1 µM; in the assay on NCI-H226 lung, 79.6 µM; with NCI-H460 lung, above 100 µM. The TGI in the assay on OVCAR-3 ovarian was 65.3 µM; in the assay on OVCAR-4 ovarian, above 100 µM; in the assay with OVCAR-5 ovarian it was 59.3 µM; with SF-539 CNS, 50.4 µM; in the assay with SK-MEL-28 melanoma it was above 100 µM.

For the compound `C[C@]12CC[C@H](O)C=C1CC[C@@H]1[C@@H]2CC[C@]2(C)C(=N/O)/C(=C/c3ccncc3)C[C@@H]12`, the TGI in the assay with HT29 colon was 18.9 µM; in the assay on KM12 colon, above 100 µM; in the assay with LOX IMVI melanoma it was above 100 µM; in the assay with M14 melanoma it was 24.6 µM; in the assay on NCI-H226 lung it was 25.3 µM; in the assay on NCI-H460 lung, 30.7 µM. Moreover, the TGI worked out at 19.1 µM with OVCAR-3 ovarian; 76 µM in the assay on OVCAR-4 ovarian; 43.8 µM in the assay on OVCAR-5 ovarian; 27.3 µM in the assay with SF-539 CNS; 60.2 µM in the assay with SK-MEL-28 melanoma.

Turning to `Cc1c2cccc-2ccc2c1[nH]c1ccc(Br)cc12`, the TGI in the assay with HT29 colon is 27.9 µM; with KM12 colon, 7.08 µM; in the assay with LOX IMVI melanoma, 15 µM; in the assay with M14 melanoma it was 20.9 µM; with NCI-H226 lung it was 5.6 µM; in the assay with NCI-H460 lung, above 100 µM. In addition, the TGI with OVCAR-3 ovarian is 13.9 µM; in the assay on OVCAR-4 ovarian it was 6.62 µM; in the assay on OVCAR-5 ovarian, 16.7 µM; with SF-539 CNS, 19.1 µM; in the assay on SK-MEL-28 melanoma, 24 µM.

These data come from PubChem BioAssay (NCI).
